Measured values: US20250255874A1, “Methods for Treating Immune Thrombocytopenia By Administering (R)-2-[3-[4-Amino-3-(2-Fluoro-4-Phenoxy-Phenyl)Pyrazolo[3,4-D]Pyrimidin-1-YL]Piperidine-1-Carbonyl]-4-Methyl-4-[4-(Oxetan-3-YL)Piperazin-1-YL]Pent-2-Enentrile” (Principia Biopharma Inc., priority 2022, published 2025)

System: patients with relapsed/refractory immune thrombocytopenia
Experiment: Phase 1/2 study (NCT03395210) Part A, safety;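 further: adverse events graded by NCI CTCAE version 4.0, with worsening of pre-existing conditions counted as adverse events, analysed in the Safety Population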
[1] = patients who initiated at all doses

CC(C)(C=C(C#N)C(=O)N1CCC[C@@H](n2nc(-c3ccc(Oc4ccccc4)cc3F)c3c(N)ncnc32)C1)N1CCN(C2COC2)CC1 [rilzabrutinib, (R)-2-[3-[4-amino-3-(2-fluoro-4-phenoxy-phenyl)pyrazolo[3,4-d]pyrimidin-1-yl]piperidine-1-carbonyl]-4-methyl-4-[4-(oxetan-3-yl)piperazin-1-yl]pent-2-enenitrile]
4 (7) number of patients (percent): Petechiae, TEAEs Due to Any Cause, Any grade (Safety Population, N = 60) | Petechiae, TEAEs Due to Any Cause, Grade 1 (Safety Population, N = 60) | Vomiting, TEAEs Due to Any Cause, Any grade (Safety Population, N = 60)
21 (35) number of patients (percent): Nausea, TEAEs Due to Any Cause, Any grade (Safety Population, N = 60)
2 (3) number of patients (percent): Fatigue, TEAEs Due to Any Cause, Grade 2 (Safety Population, N = 60) | Headache, Treatment-Related TEAEs, Any grade (Safety Population, N = 60) | Headache, Treatment-Related TEAEs, Grade 1 (Safety Population, N = 60) | Heavy menstrual bleeding, TEAEs Due to Any Cause, Any grade (Safety Population, N = 60) | Hypophosphatemia, TEAEs Due to Any Cause, Any grade (Safety Population, N = 60) | Hypophosphatemia, TEAEs Due to Any Cause, Grade 2 (Safety Population, N = 60) | Muscle spasms, TEAEs Due to Any Cause, Any grade (Safety Population, N = 60) | Muscle spasms, TEAEs Due to Any Cause, Grade 1 (Safety Population, N = 60) | Nasal congestion, TEAEs Due to Any Cause, Any grade (Safety Population, N = 60) | Nasopharyngitis, TEAEs Due to Any Cause, Grade 1 (Safety Population, N = 60) | Nausea, Treatment-Related TEAEs, Grade 2 (Safety Population, N = 60) | Pruritus, TEAEs Due to Any Cause, Any grade (Safety Population, N = 60) | Pruritus, Treatment-Related TEAEs, Any grade (Safety Population, N = 60) | Purpura, TEAEs Due to Any Cause, Any grade (Safety Population, N = 60) | Purpura, TEAEs Due to Any Cause, Grade 1 (Safety Population, N = 60) | Rash, TEAEs Due to Any Cause, Grade 2 (Safety Population, N = 60) | Thrombocytopenia, TEAEs Due to Any Cause, Any grade (Safety Population, N = 60) | Thrombocytopenia, TEAEs Due to Any Cause, Grade 3/4 (Safety Population, N = 60) | Upper abdominal pain, TEAEs Due to Any Cause, Grade 1 (Safety Population, N = 60) | Upper abdominal pain, Treatment-Related TEAEs, Any grade (Safety Population, N = 60) | Upper respiratory tract infection, TEAEs Due to Any Cause, Grade 1 (Safety Population, N = 60) | Urinary tract infection, TEAEs Due to Any Cause, Any grade (Safety Population, N = 60) | Vomiting, Treatment-Related TEAEs, Grade 1 (Safety Population, N = 60)
30%: treatment-related any-grade TEAE: nausea [1]
18 (30) number of patients (percent): Nausea, TEAEs Due to Any Cause, Grade 1 (Safety Population, N = 60) | Nausea, Treatment-Related TEAEs, Any grade (Safety Population, N = 60)
1 (2%) patients (%): TEAE resulting in study drug discontinuation: administrative and site conditions (in vivo)
5 (8) number of patients (percent): Fatigue, Treatment-Related TEAEs, Grade 1 (Safety Population, N = 60)
16 (27) number of patients (percent): Nausea, Treatment-Related TEAEs, Grade 1 (Safety Population, N = 60)
2 (4%) patients (%): TEAE resulting in study drug discontinuation: lymphatic system disorders (in vivo)
7 (12) number of patients (percent): Headache, TEAEs Due to Any Cause, Any grade (Safety Population, N = 60) | Headache, TEAEs Due to Any Cause, Grade 1 (Safety Population, N = 60)
32%: treatment-related any-grade TEAE: diarrhea [1]
10%: treatment-related any-grade TEAE: fatigue [1]
4 (7%) patients (%): TEAE resulting in study drug discontinuation: gastrointestinal (GI) disorders (in vivo)
1 (2) number of patients (percent): Fatigue, Treatment-Related TEAEs, Grade 2 (Safety Population, N = 60) | Frequent bowel movements, TEAEs Due to Any Cause, Any grade (Safety Population, N = 60) | Frequent bowel movements, TEAEs Due to Any Cause, Grade 2 (Safety Population, N = 60) | Frequent bowel movements, Treatment-Related TEAEs, Any grade (Safety Population, N = 60) | Frequent bowel movements, Treatment-Related TEAEs, Grade 2 (Safety Population, N = 60) | Heavy menstrual bleeding, TEAEs Due to Any Cause, Grade 1 (Safety Population, N = 60) | Heavy menstrual bleeding, TEAEs Due to Any Cause, Grade 2 (Safety Population, N = 60) | Hot flush, TEAEs Due to Any Cause, Any grade (Safety Population, N = 60) | Hot flush, TEAEs Due to Any Cause, Grade 2 (Safety Population, N = 60) | Hot flush, Treatment-Related TEAEs, Any grade (Safety Population, N = 60) | Hot flush, Treatment-Related TEAEs, Grade 2 (Safety Population, N = 60) | Hypoesthesia, TEAEs Due to Any Cause, Any grade (Safety Population, N = 60) | Hypoesthesia, TEAEs Due to Any Cause, Grade 2 (Safety Population, N = 60) | Hypoesthesia, Treatment-Related TEAEs, Any grade (Safety Population, N = 60) | Hypoesthesia, Treatment-Related TEAEs, Grade 2 (Safety Population, N = 60) | Hypokalemia, TEAEs Due to Any Cause, Any grade (Safety Population, N = 60) | Hypokalemia, TEAEs Due to Any Cause, Grade 1 (Safety Population, N = 60) | Hypokalemia, Treatment-Related TEAEs, Any grade (Safety Population, N = 60) | Hypokalemia, Treatment-Related TEAEs, Grade 1 (Safety Population, N = 60) | Increased white blood cell count, TEAEs Due to Any Cause, Any grade (Safety Population, N = 60) | Increased white blood cell count, TEAEs Due to Any Cause, Grade 2 (Safety Population, N = 60) | Increased white blood cell count, Treatment-Related TEAEs, Any grade (Safety Population, N = 60) | Increased white blood cell count, Treatment-Related TEAEs, Grade 2 (Safety Population, N = 60) | Maculo-papular rash, TEAEs Due to Any Cause, Any grade (Safety Population, N = 60) | Maculo-papular rash, TEAEs Due to Any Cause, Grade 1 (Safety Population, N = 60) | Maculo-papular rash, Treatment-Related TEAEs, Any grade (Safety Population, N = 60) | Maculo-papular rash, Treatment-Related TEAEs, Grade 1 (Safety Population, N = 60) | Malaise, TEAEs Due to Any Cause, Any grade (Safety Population, N = 60) | Malaise, TEAEs Due to Any Cause, Grade 1 (Safety Population, N = 60) | Malaise, Treatment-Related TEAEs, Any grade (Safety Population, N = 60) | Malaise, Treatment-Related TEAEs, Grade 1 (Safety Population, N = 60) | Micturition urgency, TEAEs Due to Any Cause, Any grade (Safety Population, N = 60) | Micturition urgency, TEAEs Due to Any Cause, Grade 1 (Safety Population, N = 60) | Micturition urgency, Treatment-Related TEAEs, Any grade (Safety Population, N = 60) | Micturition urgency, Treatment-Related TEAEs, Grade 1 (Safety Population, N = 60) | Muscle spasms, Treatment-Related TEAEs, Any grade (Safety Population, N = 60) | Muscle spasms, Treatment-Related TEAEs, Grade 1 (Safety Population, N = 60) | Myalgia, TEAEs Due to Any Cause, Any grade (Safety Population, N = 60) | Myalgia, TEAEs Due to Any Cause, Grade 1 (Safety Population, N = 60) | Myalgia, Treatment-Related TEAEs, Any grade (Safety Population, N = 60) | Myalgia, Treatment-Related TEAEs, Grade 1 (Safety Population, N = 60) | Nasal congestion, TEAEs Due to Any Cause, Grade 1 (Safety Population, N = 60) | Nasal congestion, TEAEs Due to Any Cause, Grade 2 (Safety Population, N = 60) | Nasopharyngitis, TEAEs Due to Any Cause, Grade 2 (Safety Population, N = 60) | Pruritus, TEAEs Due to Any Cause, Grade 1 (Safety Population, N = 60) | Pruritus, TEAEs Due to Any Cause, Grade 2 (Safety Population, N = 60) | Pruritus, Treatment-Related TEAEs, Grade 1 (Safety Population, N = 60) | Pruritus, Treatment-Related TEAEs, Grade 2 (Safety Population, N = 60) | Rash, TEAEs Due to Any Cause, Grade 1 (Safety Population, N = 60) | Rash, Treatment-Related TEAEs, Any grade (Safety Population, N = 60) | Rash, Treatment-Related TEAEs, Grade 1 (Safety Population, N = 60) | Upper abdominal pain, TEAEs Due to Any Cause, Grade 2 (Safety Population, N = 60) | Upper abdominal pain, Treatment-Related TEAEs, Grade 1 (Safety Population, N = 60) | Upper abdominal pain, Treatment-Related TEAEs, Grade 2 (Safety Population, N = 60) | Upper respiratory tract infection, TEAEs Due to Any Cause, Grade 2 (Safety Population, N = 60) | Urinary tract infection, TEAEs Due to Any Cause, Grade 1 (Safety Population, N = 60) | Urinary tract infection, TEAEs Due to Any Cause, Grade 2 (Safety Population, N = 60) | Vomiting, TEAEs Due to Any Cause, Grade 2 (Safety Population, N = 60) | Vomiting, Treatment-Related TEAEs, Grade 2 (Safety Population, N = 60)
6 (10) number of patients (percent): Fatigue, Treatment-Related TEAEs, Any grade (Safety Population, N = 60)
1 patient: patient death (unrelated to treatment, 400 mg bid discontinued on day 8, pre-existing Evans syndrome)
3 (5) number of patients (percent): Gingival bleeding, TEAEs Due to Any Cause, Any grade (Safety Population, N = 60) | Gingival bleeding, TEAEs Due to Any Cause, Grade 1 (Safety Population, N = 60) | Nasopharyngitis, TEAEs Due to Any Cause, Any grade (Safety Population, N = 60) | Nausea, TEAEs Due to Any Cause, Grade 2 (Safety Population, N = 60) | Peripheral swelling, TEAEs Due to Any Cause, Any grade (Safety Population, N = 60) | Peripheral swelling, TEAEs Due to Any Cause, Grade 1 (Safety Population, N = 60) | Rash, TEAEs Due to Any Cause, Any grade (Safety Population, N = 60) | Upper abdominal pain, TEAEs Due to Any Cause, Any grade (Safety Population, N = 60) | Upper respiratory tract infection, TEAEs Due to Any Cause, Any grade (Safety Population, N = 60) | Vomiting, TEAEs Due to Any Cause, Grade 1 (Safety Population, N = 60) | Vomiting, Treatment-Related TEAEs, Any grade (Safety Population, N = 60)
